Reference: patent US12241058B2, “Recombinant microbial system for directed evolution of glycocins and method of preparation thereof” (COUNCIL OF SCIENTIFIC & INDUSTRIAL RESEARCH, priority 2018, dated 2025)
No end group written: not given here. *: point of attachment. X1 = OC[C@H]1O[C@@H](O[C@H]2[C@H](O)[C@@H](O)[C@H](*)O[C@@H]2CO)[C@H](O)[C@@H](O)[C@@H]1O

Legend:
[1] = tested on: L. monocytogenes EGD-e; experiment: Agar diffusion test (ADT) of cell lysates, zone of growth inhibition, with PAS staining for glycosylation; format: cell-based, Listeria monocytogenes; details: for Zone of inhibition as well as glycosylation positive: ADT against L. monocytogenes, cleavage buffer treated cell lysate, glycosylation by PAS staining
[2] = tested on: human red blood cells; experiment: Hemolytic assay; format: cell-based
Method: Samples were prepared within 3 h of performing the assay. Neo-glycocins stock solutions of 1 mg/ml were prepared by dissolving the neo-glycocins in PBS (10 mM phosphate buffer, pH 7.4); the samples were mixed by inversion to ensure neo-glycocins were completely dissolved in PBS. To prepare the Human Red Blood Cell (hRBC) solution, blood was collected from healthy individual and RBCs were isolated following standard procedure. Informed consent was acquired from all donors and this work was carried out in compliance with the ethical committee guidelines of CSIR-IMTECH with IEC NO SUIEC/14/03.
2 ml whole blood from healthy individual was centrifuged for 30 mins at 1000 rpm(4° C.). Layer of RBCs was collected and diluted with equal volume of 1×PBS and mixture was centrifuged three times for 10 mins at 1000 rpm, 4° C. To prepare 4% RBC solution, 1 ml of RBC were mixed with 24 ml 1×PBS. To examine the hemolysis property of neo-glycocins (75-1000 μM), 20 μl of freshly prepared neo-glycocins solution was mixed with 180 μl of freshly prepared hRBC solution and was placed at 37° C. for 1 h. A total of 20 μl of PBS buffer only and 20 μl of Triton X-100 1% (w/v) were mixed with 180 μl of hRBC solution as negative and positive controls, respectively. After 1 h of incubation, all samples were centrifuged at 2500 rpm for 10 min. A total of 100 μl of supernatant was collected, and the release of hemoglobin was monitored by measuring the absorbance of the supernatant at 570 nm with a Multiskan Go plate-reader (Thermo Scientific). Hemolysis percentage for each sample was calculated by dividing sample's absorbance on positive control absorbance (complete hemolysis) multiplied by 100.

[3] = Cytotoxicity MTT reduction assay; format: cell-based; details: human; 50% cell death, THP-1 cells, MTT, 18-24 hours
Method: (§1) Cytotoxicity of Enterocin 96 and its variants (neo-glycocins) against THP-1 cells and anti-cancer potential against HepG2 cells was measured by the conventional MTT reduction assay. HepG2 and THP-1 cells (1×10^4 cells/well) were seeded into the 96-well plate and cultured at 37° C. in an atmosphere of 5% CO2 to allow them to adhere overnight. After 24 hours, the cells were exposed to Enterocin 96 and its variants (neo-glycocins) at various concentrations (75-1000 μM) for 18-24 hours. After the incubation period, 150 μl media and the suspended cells were discarded and washed with 200 μl PBS. After that, 200 μl of fresh media was added followed by 20 μl of MTT (5 mg/mL) into each well in the 96-well plate and incubated for 4 h in CO2 incubator. One hundred and fifty microlitres of medium with MTT was removed from every well and 100 μl DMSO was added to each well to solubilize the formazan crystal by incubating for 20 min in CO2 incubator. Finally, the plates were read at 570 nm by using Multiskan Go plate-reader (Thermo Scientific) and then percentage of cell viability was determined.

[4] = tested on: THP-1 cells; experiment: Cytotoxicity MTT reduction assay; format: cell-based
Method: as §1

[5] = tested on: HepG2 cells; experiment: Anti-cancer MTT reduction assay; format: cell-based
Method: as §1

[6] = tested on: E. coli MTCC 1610; experiment: Agar diffusion test (ADT) of cleaved neo-glycocins; format: cell-based
Description: (§2) FIG. 5B (d-i): Confirmation of antimicrobial activity of cleaved neo glycocins against bacterial strains namely L. monocytogenes EGDe (FIG. 5Bd-e): Vibrio cholera MTCC 3904 (FIG. 5Bf), E. coli 1610 (FIG. 5Bg), Bacillus lichenmformis MTCC 9857 (FIG. 5Bh) and Bacillus halodurans MTCC 7181 (FIG. 5Bi) using ADT;
Where in #1, f and g: cell lysate of cleavage buffer treated C13T, a variant of Enterocin 96 having SEQ ID NO: 10; #2, f and g: positive control parent peptide Enterocin 96 diglycosylated having SEQ ID NO: 9; #3, f and g: negative control/lysis buffer; #4.f and g: is negative control/cleavage buffer;
(§3) The cell lysate containing glycocins were directly subjected to agar diffusion test (ADT) using L. monocytogenes EGD-e. In ADT, the agar plates seeded with L. monocytogenes EGD-e (approximately 10^7 cells) were prepared. Approximately 100 μL lysate containing glycocin or its variants (neo-glycocin) (SEQ ID NO: 9, SEQ ID NO: 10 and SEQ ID NO: 11) were applied into the wells in the seeded plate followed by incubation of the plate at 4° C. for 1 h. Presence of inhibition zones around the wells was checked post overnight incubation of the plates at 37° C. The antimicrobial activities of the glycocin and neo-glycocin were determined by monitoring the zone of growth inhibition on the plates.

[7] = tested on: Bacillus licheniformis MTCC 9857; experiment: Agar diffusion test (ADT) of cleaved neo-glycocins; format: cell-based
Description: as §2
Wherein #1, h and i: cell lysate of cleavage buffer treated C13T, a variant of Enterocin 96 having SEQ ID NO: 10; #2, h and i: positive control parent peptide Enterocin 96 diglycosylated having SEQ ID NO: 9; #3, h and i: negative control/cleavage buffer; #4, h and i: is nisin (1 mg/ml).
as §3

[8] = tested on: bacterial strains; experiment: Antimicrobial spectrum by ADT against bacterial strains; format: cell-based; details: FIG. 5B a-i
Method: as §2
Simultaneously, to check the change in spectrum of bioactivity of neo-glycocins, the agar plates of L. monocytogenes EGD-e seeded with approximately 10^7 bacterial cells were prepared. A 100 μL of cell lysate of mutants were added into the each well and then the plate was incubated at 4° C. for 1 h followed by overnight incubation at 37° C. The presence of inhibition zones around the wells was checked. The antimicrobial activity was determined by monitoring the zone of growth inhibition. […] The glycosylation status of the neo-glycocin produced from the selected mutant were analyzed using PAS staining and MALDI-TOF and LC-ESI-MS analysis as discussed below.

[9] = Water solubility
[10] = tested on: L. monocytogenes; experiment: pH and heat stability, bioactivity verified using ADT assay; details: 121° C. for 15 minutes
[11] = tested on: L. monocytogenes; experiment: Determination of the MIC against L. monocytogenes (96-well broth dilution); format: cell-based, Listeria monocytogenes; details: Minimum Inhibitory Concentration against L. monocytogenes, 18 h at 37° C.
Method: One colony of an indicator strain (L. monocytogenes) was picked from an NB agar plate, inoculated to liquid NB medium and grown at 37° C., in a shaking incubator until OD^600 nm of 0.5 was reached. Then, the culture was diluted with NB medium and serial twofold dilutions with NB medium were made. Hundred microliters of Enterocin 96 solution (1 mg/ml in MQ) were transferred to a 96-well plate and mixed with 100 μl previously prepared cell suspension of sensitive strain. Similarly, positive control Nisin (1 mg/ml in MQ, Sigma Cat. # N5764), 100 μl mixture of NB medium with the Listeria, and negative controls (media alone, untreated indicator strain). 100 μL mixture of NB medium were prepared and dispersed in the same 96-well plates. The plate was incubated for 18 h at 37° C. in a shaking incubator. After incubation, the growth of bacteria was evaluated visually and by a plate reader. The analyses were performed in triplicate. Similarly, MIC of other variants of Enterocin 96 (neo-glycocins) was determined using above described method.

[12] = tested on: L. monocytogenes MTCC 839; experiment: Agar diffusion test (ADT) of cleaved neo-glycocins; format: cell-based, Listeria monocytogenes; details: L. monocytogenes MTCC 839, FIG. 5Bd-e

MASKRDCNLMKATCAGQAVTYAIHSLLNRLGGDS(X1)SDPAGCNDIVRKYCK (cysteines drawn unpaired) [SEQ ID NO: 10]
Zone of inhibition as well as glycosylation positive [1]: positive
Zone of inhibition as well as glycosylation positive ([1]; listed as C13T): Yes
Hemolysis compared with Nisin and Enterocin 96 ([2]; FIG. 6A): no significant change
IC50 [3]: 248.6 ± 0.105 µM
Cytotoxicity compared with Nisin and Enterocin 96 ([4]; THP-1, FIG. 6B): no significant change
Cytotoxicity compared with Nisin and Enterocin 96 ([5]; HepG2, FIG. 6C): no significant change
Bioactivity against Gram negative bacteria E. coli MTCC 1610 [6]: observed
Bioactivity against Gram positive spore forming bacteria Bacillus licheniformis MTCC 9857 [7]: observed
Antimicrobial spectrum compared with native glycocin / Nisin and Enterocin 96 [8]: different antimicrobial spectrum
Antimicrobial spectrum compared with native glycocin / Nisin and Enterocin 96 ([8]; listed as C13T): improved antibacterial spectrum
Water solubility [9]: water soluble
Bioactivity against L. monocytogenes post autoclaving [10]: retain bioactivity

MASKRDCNLMKACCAGQAVTYAIHSLLNRLGGDS(X1)SDPAGCNDIVRKYCK (cysteines drawn unpaired) [SEQ ID NO: 9, Enterocin 96, reference compound]
IC50 [3]: 194.1 ± 0.119 µM
Bioactivity against Gram negative bacteria E. coli MTCC 1610 [6]: not
Bioactivity against Gram positive spore forming bacteria Bacillus licheniformis MTCC 9857 [7]: not

neo-glycocin with pediocin box (YYGNGV): MASKYYGNGVKRDCNLMKACCAGQAVTYAIHSLLNRLGGDSSDPAGCNDIVRKYCK (not fully specified; cysteine pairing not given here) [SEQ ID NO: 11]
Zone of inhibition as well as glycosylation positive [1]: positive
Zone of inhibition as well as glycosylation positive ([1]; listed as PedioEnt96): Yes
Activity against L. monocytogenes compared with diglycosylated glycocin ([1]; monoglycosylated length and glycan variant, strain not specified): as active as diglycosylated glycocin
Anti-bacterial activity (MIC in μM) [11]: >0.54 µM
Hemolysis (MHC in μM) [2]: 600 µM
IC50 ([4]; 50% cell death, THP-1 cells, MTT, 18-24 hours): 233.6 ± 0.132 µM
IC50 ([5]; 50% cell (cancerous) death, HepG2 cells, MTT, 18-24 hours): 192.1 ± 0.135 µM
Antimicrobial spectrum compared with native glycocin / Nisin and Enterocin 96 [8]: different antimicrobial spectrum

MASKRDCNLMKACCAGQAVTYAIHSLLNRLGGDC(X1)SDPAGCNDIVRKYCK (cysteines drawn unpaired) [SEQ ID NO: 40]
Zone of inhibition as well as glycosylation positive [1]: positive
Zone of inhibition as well as glycosylation positive ([1]; listed as S34C): Yes
Bioactivity compared with the parent peptide ([1]; ADT, L. monocytogenes EGDe, FIG. 5Bd-e): equally bioactive
IC50 [3]: 314.7 ± 0.18 µM
Bioactivity compared with the parent peptide [12]: equally bioactive
